One experiment has as its target T1, Aβ40 (Homo sapiens, UniProt P05067).
T1 construct: Ab40 ([…]-; purchased Peptide Institute, Inc. (Osaka, Japan)
Description: ESI-MS and ESI-MS2 of Aβ40 treated with 6. To be noted: 6 200 μM, 3 h. The text has this:
To identify the modifications of Aβ in both the absence and presence of Cu(II) upon treatment of 6, we carried out the studies employing electrospray ionization mass spectrometry (ESI-MS). In the sample containing metal-free Aβ42 and 6, the addition of +16 Da into the +3-charged Aβ42 monomer, assigned to be the oxidized monomeric Aβ42, was detected (Fig. 7a), while such oxidation was not observed under anaerobic conditions (Fig. S20 ^†). To determine the oxidized amino acid residues in Aβ42, the b fragments generated by collision-induced dissociation were analyzed by tandem MS (ESI-MS^2). As illustrated in Fig. 7b and S21a, ^† the Met35 residue was measured to be the oxidation site in the singly oxidized Aβ42. […] Similar to metal-free Aβ42, the oxidation of Aβ40 at the Met35 residue was monitored by incubation with 6 (Fig. S22a, b and S23a ^†). […]
2D 1H−15N SOFAST-HMQC NMR Experiments. […] Experimental data were processed with NMRpipe29 and Sparky 3.115.30 The 1H and 15N assignments of 15N-labeled Ab were determined based on the previous results.21,31 The chemical shift perturbation was calculated following the equation (eq 4).32 Note that DdH and DdN represent the alterations in the chemical shifts of 1H and 15N of 15N-labeled Ab, respectively. […]

For a further experiment, the target named is T2, Aβ42 (Homo sapiens, UniProt P05067).
T2 construct: purchased Peptide Institute, Inc. (Osaka, Japan)
T2 sequence (P05067 672-713 limits assumed): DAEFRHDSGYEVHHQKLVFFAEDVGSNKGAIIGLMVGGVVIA
The experiment is described as follows: ITC binding of 6 with Aβ42. As for the experimental part:
Distinct reactivities of 6 with metal-free Aβ and metal–Aβ were supported by various biophysical approaches. […] In the absence of Aβ, an increase or decrease in the absorption of the peaks at ca. 265, 300, 340, and 410 nm was monitored for 24 h (Fig. S18 ^†), which could be resulted from the oxidation of 6 in the presence of O2.[69] These spectral changes were accelerated upon incubation with Aβ, indicative of its impact on the oxidative modification of 6. Such transformation of 6 was also indicated in the presence of Cu(II) or Zn(II) with and without Aβ. To probe the interaction of 6 with Aβ, their binding properties were analyzed by isothermal titration calorimetry (ITC). For the association between 6 and Aβ, we recorded the heat change upon constant titration of the flavonoid into the solution of Aβ, where the dilution heat was also measured to avoid the heat change induced by its addition into the buffered solution. […] Thus, 6 can bind to Aβ with a micromolar binding affinity. […]
ITC. The solutions of Ab and 6 were subjected to degassing under vacuum for 3 min prior to loading into the instrument. […] […] The initial delay and the reference power were 60 s and 10 µcal/s, respectively. Dilution heat of 6 only was also measured under the same experimental conditions.
The ITC thermogram and binding isotherm were shown after the subtraction of the dilution heat.
The binding isotherm after baseline correction was fitted to the one-set-of-sites binding model using the MicroCal Origin software (version 7.0).
Expression and Purification of 15N-labeled Recombinant Ab42. 15N-labeled recombinant Ab42 was expressed in E. coli and purified as previously reported.27 Briefly, the DNA sequence coding the human Ab42 peptide was artificially constructed using codons preferred by E. coli with an extra Met residue at the N-terminal of the peptide. The DNA construct was inserted into pAED4 vector28 and the E. coli BL21 (DE3) pLysS strain (Novagen, Inc., Madison, WI, USA) was utilized in the protein expression. Transformed cells were incubated in LB media containing ampicillin and chloramphenicol until the cultures reach 3.5 McFarland turbidity. Cells were then harvested by centrifugation and the cell pellets were resuspended in M9 minimal media containing isotopically labeled 1 g/L 15N ammonium chloride, and induced by addition of 1 mM IPTG for 4 h. The peptide formed inclusion bodies in the bacterial cells. The purified inclusion bodies were dissolved in 20 mM NaOH and the peptide was further purified by repeated cycles of amyloid growth at low pH

T1 sequence (P05067 672-711 limits assumed): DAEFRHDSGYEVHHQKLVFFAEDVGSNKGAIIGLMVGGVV

In the case of `O=c1c(-c2ccc(O)c(O)c2)coc2cc(O)c(O)c(O)c12` [compound 6, 3-(3,4-dihydroxyphenyl)-5,6,7-trihydroxy-4H-chromen-4-one], the “plausible oxidation sites in singly oxidized Aβ” value at Aβ40 (Cu(II)–Aβ40, Cu(II) 100 μM) is “His13, His14, and Met35”. For the same compound, the “oxidation site in singly oxidized Aβ” value on Aβ40 (metal-free Aβ40 100 μM) is “Met35”. Further, on Aβ42 (one-site model, 10 °C, read-out: Binding affinity), the Kd is roughly 19.5 µM. Also, on Aβ42 (pH 7.4, 10 °C), the TΔS is on record as 5.6 (±0.1) kcal mol^−1, the ΔG is recorded as −6.1 (±0.1) kcal mol^−1 and the ΔH is given as −0.5 (±0.1) kcal mol^−1.

Source of the values: article PMC10498667 (Chemical Science, 2023).
